Test [1] relates to resistant MDA-MB-231 mammary fat pad tumors. Nature of the test: Tumor growth in orthotopic triple-negative breast cancer mice model after hydrogel implantation. The test is classed as in vivo, SCID mice. Conditions: day 14 post treatment. The source says: In order to evaluate the efficiency of the dark-gold nanobeacon probes in sensing and in overcoming MDR in vivo, an orthotopic breast cancer mice model was developed by injecting resistant MDA-MD-231 cells to the mammary fat pad of female SCID hairless congenic mice. Efficacious and local delivery of the dark-gold nanobeacon probes was achieved by the implantation of a hydrogel disk on top of the triple-negative breast tumors. The hydrogel scaffold comprising polyamidoamine (PAMAM G5) dendrimer cross-linked with dextran aldehyde provided enhanced stability of the embedded nanoparticles.
Tumors in the mammary fat pad were induced in female SCID hairless congenic mice by injection of 5×10^6 resistant MDA-MB-231 cells stably expressing firefly luciferase, suspended in 50 μL of HBBS (Lonza, GA, USA) solution. For determination of tumor growth, individual tumors were measured using caliper, and tumor volume was calculated by Tumor volume (mm^3)=width×(length^2)/2. Treatments began when tumor volume reached about 100 mm^3. […]
In vivo imaging was used to track simultaneously tumor inhibition as measured by luciferase expression, nanobeacon probes before and after hybridization to the target and hydrogel stability monitored by fluorescence emission over a period of 14 days following hydrogel implantation.

Test [2] concerns resistant MDA-MB-231 cells. Nature of the test: MTT cell viability assay. Conditions: 5-FU resistant MDA-MB-231 cells compared to parental cells. The test is classed as cell-based. As to the method: Briefly, a standard MTT [3-(4,5-dimethylthiazol-2-yl)-2,5-diphenyltetrazoliumbromide] reduction assay was performed to determine the resistance status of the cells and the cytotoxicity of the gold nanobeacons.
Cells were seeded at a density of 1×10^5 cells per well in 24-well culture plates in complete DMEM (500 μL) with serum. After 24 hours of exposure, the medium was removed and the cells were washed twice with sterile PBS and 300 μL of fresh medium with serum was added. Then 16.7 μL of sterile MTT stock solution (5 mg/mL in PBS) was added to each well.
After incubation for an additional 2 hours, the medium was removed and the formazan crystals were resuspended in 300 μL of dimethyl sulfoxide (Sigma-Aldrich, USA). The solution was mixed and its absorbance was measured at 540 nm as a working wavelength and 630 nm as reference using a microplate reader (Varioskan Flash Multimode Reader, Thermo Scientific, MA, USA). The cell viability was normalized to that of cells cultured in the culture medium with PBS treatment.
In order to corroborate confocal and flow cytometry data and overcome 5-FU resistance, resistant MDA-MB-231 cells were incubated with increasing amounts of dark-gold nanobeacons with and without 5-FU, and evaluated by the imaging system IVIS®.

On to `O=c1[nH]cc(F)c(=O)[nH]1` [5-FU, 5-fluorouracil], for which the “effect on tumor (in words)” value in test [1] is given as “no effect”. The “cell death after continuous exposure to drug” value in test [2] was “absence of cell death”.

Source of the values: patent publication US20160243254A1, “Theranostic Nanoprobes for Overcoming Cancer Multidrug Resistance and Methods” (Massachusetts Institute of Technology, priority 2015, published 2016).
